Results as given in ChEMBL document CHEMBL3396968, “Isolation and cytotoxicity evaluation of taxanes from the barks of Taxus wallichiana var. mairei” (Bioorg Med Chem Lett, 2015).

Tests used:
A549 = assay: Antiproliferative activity against human A549 cells assessed as growth inhibition after 48 hrs by sulforhodamine B assay; assay type: functional, cell-based; conditions: A549, 48 h
MCF7 = assay: Antiproliferative activity against human MCF7 cells assessed as growth inhibition after 48 hrs by sulforhodamine B assay; assay type: functional, cell-based; conditions: MCF7, 48 h
A2780 = assay: Antiproliferative activity against human A2780 cells assessed as growth inhibition after 48 hrs by sulforhodamine B assay; assay type: functional, cell-based; conditions: A2780, 48 h
[1] = Antiproliferative activity against human A2780/TAX cells assessed as growth inhibition after 48 hrs by sulforhodamine B assay; assay type: functional, cell-based
[2] = Antiproliferative activity against human HCT8 cells assessed as growth inhibition after 48 hrs by sulforhodamine B assay; assay type: functional, cell-based; conditions: HCT-8, 48 h
[3] = Antiproliferative activity against human HCT8/VCT cells assessed as growth inhibition after 48 hrs by sulforhodamine B assay; assay type: functional, cell-based
[4] = Antiproliferative activity against human A549/CDDP cells assessed as growth inhibition after 48 hrs by sulforhodamine B assay; assay type: functional, cell-based; conditions: A549, 48 h
[5] = Antiproliferative activity against human MCF7/DX cells assessed as growth inhibition after 48 hrs by sulforhodamine B assay; assay type: functional, cell-based
[6] = Antiproliferative activity against mouse NIH/3T3 cells assessed as growth inhibition after 48 hrs by sulforhodamine B assay; assay type: cell-based; conditions: NIH3T3, 48 h
SW480 = assay: Antiproliferative activity against human SW480 cells assessed as growth inhibition after 48 hrs by sulforhodamine B assay; assay type: functional, cell-based; conditions: SW480, 48 h
HepG2 = assay: Antiproliferative activity against human HepG2 cells assessed as growth inhibition after 48 hrs by sulforhodamine B assay; assay type: functional, cell-based; conditions: HepG2, 48 h

CC(=O)O[C@H]1C(=O)[C@@]2(C)[C@H]([C@H](OC(=O)c3ccccc3)[C@]3(O)C[C@H](OC(=O)[C@H](O)[C@@H](NC(=O)OC(C)(C)C)c4ccccc4)C(C)=C1C3(C)C)[C@]1(OC(C)=O)CO[C@@H]1C[C@@H]2O
IC50 (A549): < 0.002 µM | IC50 (MCF7): < 0.002 µM | IC50 (A2780): < 0.002 µM | IC50 [1]: 0.42 µM | IC50 [2]: < 0.002 µM | IC50 [3]: 0.89 µM | IC50 [4]: < 0.002 µM | IC50 [5]: < 0.002 µM | IC50 [6]: < 0.002 µM

CCCCCC(=O)N[C@@H](c1ccccc1)[C@@H](O)C(=O)O[C@H]1C[C@@]2(O)[C@@H](OC(=O)c3ccccc3)[C@@H]3[C@]4(OC(C)=O)CO[C@@H]4C[C@H](O[C@@H]4OC[C@@H](O)[C@H](O)[C@H]4O)[C@@]3(C)C(=O)[C@H](O)C(=C1C)C2(C)C
IC50 (A549): 19 µM | IC50 (SW480): > 25 µM | IC50 (MCF7): > 25 µM | IC50 (HepG2): > 25 µM | IC50 (A2780): 1.5 µM | IC50 [1]: > 25 µM | IC50 [2]: 8.5 µM | IC50 [3]: > 25 µM | IC50 [4]: 0.64 µM | IC50 [5]: > 25 µM | IC50 [6]: > 25 µM

C=C1[C@@H](O[C@@H]2O[C@H](CO)[C@@H](O)[C@H](O)[C@H]2O)C[C@H](OC(C)=O)[C@]2(C)[C@@H]1C[C@@H]1C[C@H](O)C(C)=C([C@@H](OC(C)=O)[C@@H]2OC(C)=O)C1(C)C
IC50 (A549): 2.2 µM | IC50 (SW480): 16 µM | IC50 (MCF7): > 25 µM | IC50 (HepG2): 6.1 µM | IC50 (A2780): > 25 µM | IC50 [1]: > 25 µM | IC50 [2]: > 25 µM | IC50 [3]: > 25 µM | IC50 [4]: > 25 µM | IC50 [5]: > 25 µM | IC50 [6]: > 25 µM

CC(=O)O[C@@]12CO[C@@H]1C[C@H](O[C@@H]1OC[C@@H](O)[C@H](O)[C@H]1O)[C@@]1(C)C(=O)[C@H](O)C3=C(C)[C@@H](OC(=O)[C@H](O)[C@@H](NC(=O)c4ccccc4)c4ccccc4)C[C@@](O)([C@@H](OC(=O)c4ccccc4)[C@H]21)C3(C)C
IC50 (A549): 2.1 µM | IC50 (SW480): 16 µM | IC50 (MCF7): 0.8 µM | IC50 (HepG2): 3 µM | IC50 (A2780): 1.6 µM | IC50 [1]: > 25 µM | IC50 [2]: 0.26 µM | IC50 [3]: > 25 µM | IC50 [4]: 2.5 µM | IC50 [5]: 1.4 µM | IC50 [6]: > 25 µM

C/C=C(\C)C(=O)N[C@@H](c1ccccc1)[C@@H](O)C(=O)O[C@H]1C[C@@]2(O)[C@@H](OC(=O)c3ccccc3)[C@@H]3[C@]4(OC(C)=O)CO[C@@H]4C[C@H](O[C@@H]4OC[C@@H](O)[C@H](O)[C@H]4O)[C@@]3(C)C(=O)[C@H](OC(C)=O)C(=C1C)C2(C)C
IC50 (A549): 2.2 µM | IC50 (SW480): 7.2 µM | IC50 (MCF7): 0.029 µM | IC50 (HepG2): 5.8 µM | IC50 (A2780): > 25 µM | IC50 [1]: 17 µM | IC50 [2]: > 25 µM | IC50 [3]: > 25 µM | IC50 [4]: > 25 µM | IC50 [5]: > 25 µM | IC50 [6]: > 25 µM

CC(=O)O[C@H]1C(=O)[C@]2(C)[C@@H](O[C@@H]3OC[C@@H](O)[C@H](O)[C@H]3O)C[C@H]3OC[C@@]3(OC(C)=O)[C@H]2[C@H](OC(=O)c2ccccc2)[C@]2(O)C[C@H](OC(=O)[C@H](O)[C@@H](NC(=O)c3ccccc3)c3ccccc3)C(C)=C1C2(C)C
IC50 (A549): 0.39 µM | IC50 (SW480): 5.6 µM | IC50 (MCF7): 0.16 µM | IC50 (HepG2): 1.2 µM | IC50 (A2780): 0.85 µM | IC50 [1]: > 25 µM | IC50 [2]: 5.9 µM | IC50 [3]: > 25 µM | IC50 [4]: 0.92 µM | IC50 [5]: > 25 µM | IC50 [6]: > 25 µM

C/C=C(\C)C(=O)N[C@@H](c1ccccc1)[C@@H](O)C(=O)O[C@H]1C[C@@]2(O)[C@@H](OC(=O)c3ccccc3)[C@@H]3[C@]4(OC(C)=O)CO[C@@H]4C[C@H](O[C@@H]4OC[C@@H](O)[C@H](O)[C@H]4O)[C@@]3(C)C(=O)[C@H](O)C(=C1C)C2(C)C
IC50 (A549): 1.9 µM | IC50 (SW480): 20 µM | IC50 (MCF7): 0.14 µM | IC50 (HepG2): 3.9 µM | IC50 (A2780): 3.5 µM | IC50 [1]: > 25 µM | IC50 [2]: > 25 µM | IC50 [3]: > 25 µM | IC50 [4]: 3.1 µM | IC50 [5]: > 25 µM | IC50 [6]: > 25 µM

CC(=O)O[C@@]12CO[C@@H]1C[C@H](O)[C@@]1(C)C(=O)[C@H](O)C3=C(C)[C@@H](O)C[C@@](O)([C@@H](OC(=O)c4ccccc4)[C@H]21)C3(C)C
IC50 (A549): 21 µM | IC50 (MCF7): 17 µM | IC50 (A2780): > 25 µM | IC50 [1]: 16 µM | IC50 [2]: > 25 µM | IC50 [3]: > 25 µM | IC50 [4]: 25 µM | IC50 [5]: > 25 µM | IC50 [6]: > 25 µM

C=C1[C@@H](OC(=O)C[C@H](c2ccccc2)N(C)C)C[C@H](OC(C)=O)[C@]2(C)[C@@H]1C[C@@H]1C[C@H](OC(C)=O)C(C)=C([C@@H](OC(C)=O)[C@@H]2OC(C)=O)C1(C)C
IC50 (A549): 12 µM | IC50 (SW480): > 25 µM | IC50 (MCF7): 0.04 µM | IC50 (HepG2): 15 µM | IC50 (A2780): 5.1 µM | IC50 [1]: > 25 µM | IC50 [2]: > 25 µM | IC50 [3]: > 25 µM | IC50 [4]: 14 µM | IC50 [5]: > 25 µM | IC50 [6]: 10 µM

CC(=O)O[C@@]12CO[C@@H]1C[C@@H](O)[C@@]1(C)C(=O)[C@H](O)C3=C(C)[C@@H](OC(=O)[C@H](O)[C@@H](NC(=O)c4ccccc4)c4ccccc4)C[C@@](O)([C@@H](OC(=O)c4ccccc4)[C@H]21)C3(C)C
IC50 (A549): 0.011 µM | IC50 (SW480): 0.059 µM | IC50 (MCF7): 0.012 µM | IC50 (HepG2): 0.095 µM | IC50 (A2780): 0.03 µM | IC50 [1]: 7.2 µM | IC50 [2]: 13 µM | IC50 [3]: 11 µM | IC50 [4]: 0.024 µM | IC50 [5]: > 25 µM | IC50 [6]: 2.2 µM

C=C1[C@@H](OC(=O)/C=C/c2ccccc2)C[C@H](OC(C)=O)[C@]2(C)[C@@H]1C[C@@H]1C[C@H](OC(C)=O)C(C)=C([C@@H](OC(C)=O)[C@@H]2OC(C)=O)C1(C)C
IC50 (A549): 9.4 µM | IC50 (SW480): > 25 µM | IC50 (MCF7): > 25 µM | IC50 (HepG2): > 25 µM | IC50 (A2780): 9.7 µM | IC50 [1]: > 25 µM | IC50 [2]: 11 µM | IC50 [3]: 12 µM | IC50 [4]: 7.1 µM | IC50 [5]: > 25 µM | IC50 [6]: 15 µM

CC(=O)O[C@H]1C(=O)[C@@]2(C)[C@H]([C@H](OC(=O)c3ccccc3)[C@]3(O)C[C@H](O)C(C)=C1C3(C)C)[C@]1(OC(C)=O)CO[C@@H]1C[C@@H]2O [BACCATIN III]
IC50 (A549): > 25 µM | IC50 (MCF7): 7.4 µM | IC50 (A2780): > 25 µM | IC50 [1]: > 25 µM | IC50 [2]: 12 µM | IC50 [3]: > 25 µM | IC50 [4]: 24 µM | IC50 [5]: > 25 µM | IC50 [6]: > 25 µM

C/C=C(\C)C(=O)N[C@@H](c1ccccc1)[C@@H](O)C(=O)O[C@H]1C[C@@]2(O)[C@@H](OC(=O)c3ccccc3)[C@@H]3[C@]4(OC(C)=O)CO[C@@H]4C[C@H](O)[C@@]3(C)C(=O)[C@H](OC(C)=O)C(=C1C)C2(C)C [CEPHALOMANNINE]
IC50 (A549): 0.008 µM | IC50 (SW480): 0.033 µM | IC50 (MCF7): 0.004 µM | IC50 (HepG2): 0.02 µM | IC50 (A2780): 0.013 µM | IC50 [1]: 4.9 µM | IC50 [2]: > 25 µM | IC50 [3]: 7.2 µM | IC50 [4]: 0.005 µM | IC50 [5]: 7 µM | IC50 [6]: 0.6 µM

CC(=O)O[C@H]1C(=O)[C@@]2(C)[C@H]([C@H](OC(=O)c3ccccc3)[C@]3(O)C[C@H](OC(=O)[C@H](O)[C@@H](NC(=O)c4ccccc4)c4ccccc4)C(C)=C1C3(C)C)[C@]1(OC(C)=O)CO[C@@H]1C[C@@H]2O [PACLITAXEL]
IC50 (SW480): 0.021 µM | IC50 (HepG2): 0.009 µM | IC50 [1]: 4.4 µM | IC50 [2]: 0.066 µM | IC50 [5]: 6.2 µM | IC50 [6]: 0.58 µM

C=C1[C@@H](O)C[C@H](OC(C)=O)[C@@]2(COC(=O)c3ccccc3)[C@@H](OC(C)=O)[C@H](OC(C)=O)[C@@]3(O)[C@]4(C)OC[C@]3(C)C(CC4=O)[C@@H](OC(C)=O)[C@H]12 [TAXININE M]
IC50 (A549): 12 µM | IC50 (SW480): 16 µM | IC50 (MCF7): > 25 µM | IC50 (HepG2): > 25 µM | IC50 (A2780): > 25 µM | IC50 [1]: > 25 µM | IC50 [2]: > 25 µM | IC50 [3]: > 25 µM | IC50 [4]: > 25 µM | IC50 [5]: > 25 µM | IC50 [6]: > 25 µM
